Columns and labels:
[1] = Metabolic stability with human liver microsomes; format: in vitro ADME; details: for Percent Remaining (%): Mean; for CLint scaled / half-life: human
Protocol: The metabolic stability of payload PIII-1 incubated with human liver microsomes was evaluated and the results were shown in the Table 7e below.

GR [2] = target: T1, GR (Homo sapiens, UniProt P04150); assay: GR luciferase reporter assay in HEK293/GRLuc cells; format: cell-based; details: for EC50: 48 hours
T1 construct: host or cells: HEK293 (HEK293/GRLuc; HEK293/GRLuc/MSR1 additionally transduced with human MSR1)
T1 sequence (P04150 524-758 limits assumed): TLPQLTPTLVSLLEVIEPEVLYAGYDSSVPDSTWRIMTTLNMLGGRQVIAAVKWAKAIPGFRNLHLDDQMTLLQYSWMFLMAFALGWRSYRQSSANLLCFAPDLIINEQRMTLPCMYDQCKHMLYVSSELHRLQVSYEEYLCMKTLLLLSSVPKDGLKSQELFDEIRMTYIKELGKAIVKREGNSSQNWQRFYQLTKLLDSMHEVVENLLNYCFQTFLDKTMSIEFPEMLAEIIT
Protocol: (§1) Activity of anti-MSR1 ncADCs were tested using an MSR1 ADC steroid responsive luciferase reporter assay. To generate the assay cell line, HEK293 cells were co-transfected with the pBind-GR (Promega, Cat #E158A) and pGL4.35 [Luc2P/9xGAL4UAS/Hygro] (Promega, Cat #E137A) vectors. The pBind-GR vector expresses a fusion protein consisting of the GR ligand binding and the yeast Gal4DNA-binding domain, which binds to the Gal4 upstream activation sequence (UAS) in the luciferase expression vector, that can induce luciferase expression following GR agonist binding. The cells were selected for at least 2 weeks in G418+hygromycin and the resulting cell line is referred to as HEK293/GRLuc. HEK293/GRLuc cells were then transduced with a human MSR1 lentiviral expression vector and 48 hours later cells were sorted for MSR1 positive cells. The resulting cell line is referred to as HEK293/GRLuc/MSR1.
(§2) Three-fold serial dilutions of ncADCs in assay buffer were added to the cells for 48 hours. The last well in the plate served as blank control containing only the assay media and was plotted as a continuation of the 3-fold serial dilution. Luciferase activity was determined using the One-Glo™ reagent (Promega, Cat #E6130). Relative light units (RLUs) were measured on an Envision luminometer (PerkinElmer) and EC50 values were determined using a four-parameter logistic equation over a 10-point dose response curve (GraphPad Prism). The signal to noise (S/N) was determined by taking the ratio of the highest RLU on the dose response curve to the RLU in the untreated wells.
(§3) To test the activity of GR agonist payloads disclosed herein, a cell-based GR responsive luciferase reporter assay was developed as described above.
(§4) Three-fold serial dilutions of free payloads were prepared in 100% DMSO, transferred to fresh assay media, and added to the cells for 48 hours. […] The last well in the plate served as blank control containing only the assay media and 0.2% DMSO (untreated well) and was plotted as a continuation of the 3-fold serial dilution. Luciferase activity was determined using the One-Glo™ reagent (Promega, Cat #E6130). Relative light units (RLUs) were measured on an Envision luminometer (PerkinElmer) and EC50 values were determined using a four-parameter logistic equation over a 10-point dose response curve (GraphPad Prism). The signal to noise (S/N) was determined by taking the ratio of the highest RLU on the dose response curve to the RLU in the untreated wells.

GR [3] = target: T1, GR; assay: GR luciferase reporter assay in HEK293/GRLuc/MSR1 cells; format: cell-based; details: Table 8b, free payloads; for S/N: HEK293/GRLuc/MSR1; for EC50: HEK293/GRLuc/MSR1, 48 hours
Protocol: as §1, §2, §3, §4

[4] = target: T2, human macrophage scavenger receptor 1 (MSR1) (human, UniProt P21757 1-451); assay: cell-based or functional assay
T2 sequence (looked up): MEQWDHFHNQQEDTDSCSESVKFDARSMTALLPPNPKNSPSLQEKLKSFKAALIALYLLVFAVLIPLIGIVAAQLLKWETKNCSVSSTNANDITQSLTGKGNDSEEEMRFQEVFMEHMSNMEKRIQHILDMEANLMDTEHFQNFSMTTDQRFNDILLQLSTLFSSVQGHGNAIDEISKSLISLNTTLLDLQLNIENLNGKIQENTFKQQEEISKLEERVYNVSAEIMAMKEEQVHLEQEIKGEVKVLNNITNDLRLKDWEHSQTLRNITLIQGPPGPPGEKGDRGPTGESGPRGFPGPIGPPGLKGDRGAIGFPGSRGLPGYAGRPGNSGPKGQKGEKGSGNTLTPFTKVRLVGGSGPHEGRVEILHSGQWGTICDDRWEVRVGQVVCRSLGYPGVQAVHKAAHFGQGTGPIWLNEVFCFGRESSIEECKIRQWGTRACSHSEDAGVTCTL

[5] = Lysosomal cleavage assay (payload release); format: in vitro ADME, human; details: 0 hours, 1 μM payload-equivalent ncADC, 37° C.; for Released Payload Precursor Concentration: precursor PIII-1 released; for Released Payload Concentration: steroid III released
Protocol: To confirm the release of payloads linked to antibodies via hemiaminal ether linkers, a lysosomal cleavage assay was performed. […] 200 μL of resulting mixture with 1 μM payload-equivalent ncADC was incubated at 37° C. with gentle shaking over a 24-hour period. A 20 μL aliquot was taken at 0, 0.5, 1.0, 2.0, 4.0, 8.0 and 24 hours and immediately transferred to a plate containing 80 μL cold acetonitrile to deactivate the lysosomal enzymes and precipitate the proteins. After centrifugation at 2,000 rpm for 5 minutes, aliquots of supernatant were diluted with an equal volume of water for LC-MS analysis to determine the amount of precursor and payload released from ncADC.

[6] = Table 8, ncADCs, highest RLU / RLU of untreated wells

Molecule: CCCC1O[C@@H]2C[C@H]3[C@@H]4C[C@H](F)C5=CC(=O)C=C[C@]5(C)[C@@]4(F)[C@@H](O)C[C@]3(C)[C@]2(C(=O)CO)O1 (stereo partly shown) [III]
- Percent Remaining (%) ([1]; 0 min): 100.00%
- Percent Remaining (%) ([1]; 5 min): 16.15%
- Percent Remaining (%) ([1]; 15 min): 0.75%
- Percent Remaining (%) ([1]; 30 min): 0.76%
- Percent Remaining (%) ([1]; 45 min): 0.14%
- CLint scaled [1]: 811 mL/min/kg
- half-life [1]: 2.14 min
- S/N (GR [2]; Table 8b, free payloads): 34.4
- EC50 (GR [2]; Table 8b, free payloads): 19.7 pM
- S/N (GR [3]): 156.7
- EC50 (GR [3]): 24.2 pM

Molecule: CCCC1O[C@@H]2C[C@H]3[C@@H]4C[C@H](F)C5=CC(=O)C=C[C@]5(C)[C@@]4(F)[C@@H](O)C[C@]3(C)[C@]2(C(=O)COCNC(=O)CN)O1 (stereo partly drawn) [PIII-1, 2-Amino-N-({2-[(1S,2S,4R,8S,9S,11S,12R,13S,19S)-12,19-difluoro-11-hydroxy-9,13-dimethyl-16-oxo-6-propyl-5,7-dioxapentacyclo[10.8.0.0^2,9.0^4,8.0^13,18]icosa-14,17-dien-8-yl]-2-oxoethoxy}methyl)acetamide]
- Percent Remaining (%) ([1]; 0 min): 100.00%
- Percent Remaining (%) ([1]; 5 min): 59.35%
- Percent Remaining (%) ([1]; 15 min): 23.58%
- Percent Remaining (%) ([1]; 30 min): 6.83%
- Percent Remaining (%) ([1]; 45 min): 2.68%
- CLint scaled [1]: 223 mL/min/kg
- half-life [1]: 7.8 min
- S/N (GR [2]; Table 8b, free payloads): 32.1
- EC50 (GR [2]; Table 8b, free payloads): 46.5 pM
- S/N (GR [3]): 179.3
- EC50 (GR [3]): 54.5 pM

B1: H1H21234N-N297Q-L1-PIII-1 (antibody, V domains shown)
VH: QVQLQESGPGLVKPSETLSLTCTVTGGSISRNYWSWIRQPPGKGLEWIGYIYYSGSIDYNPSLKSRVTISVDTSKNQFSLKLSSMTAADTAVYYCARDRWNWKYGMDVWGQGTTVIVSS
VL: EIVLTQSPGTLSLSPGERATLSCRASQTVRNNYLAWYHQKPGQAPRLLIYGASSRATGIPDRFSGSGSGTDFTLTISRLEPEDFTVYYCHQYGNSPWTFGQGTKMEIKR
modifications: heavy-chain constant region (not part of this entry): N297Q (EU); linker-payload L1-PIII-1 (DIBAC-suc-PEG4-vcPAB-PIII-1, payload 6,11-2F-budesonide III) clicked onto azido-PEG3-amine on glutamines; DAR 4
- EC50, GR luciferase reporter activity in HEK293/GRLuc/MSR1 cells [4]: 97.3 pM
- S/N (highest RLU / RLU in untreated wells), HEK293/GRLuc/MSR1 cells [4]: 143
- EC50 (GR [2]; Table 8, ncADCs): 50600 pM
- S/N (GR [2]; [6]): 16.4
- Released Payload Precursor Concentration [5]: 0 nM
- Released Payload Concentration [5]: 0 nM

B2: H1H21234N-N297Q-L3-PIII-1 (antibody, V domains shown)
VH: QVQLQESGPGLVKPSETLSLTCTVTGGSISRNYWSWIRQPPGKGLEWIGYIYYSGSIDYNPSLKSRVTISVDTSKNQFSLKLSSMTAADTAVYYCARDRWNWKYGMDVWGQGTTVIVSS
VL: EIVLTQSPGTLSLSPGERATLSCRASQTVRNNYLAWYHQKPGQAPRLLIYGASSRATGIPDRFSGSGSGTDFTLTISRLEPEDFTVYYCHQYGNSPWTFGQGTKMEIKR
modifications: heavy-chain constant region (not part of this entry): N297Q (EU); linker-payload L3-PIII-1 (DIBAC-suc-PEG4-GGF-PIII-1) clicked onto azido-PEG3-amine on glutamines; DAR 4
- EC50, GR luciferase reporter activity in HEK293/GRLuc/MSR1 cells [4]: 85.4 pM
- S/N (highest RLU / RLU in untreated wells), HEK293/GRLuc/MSR1 cells [4]: 269
- EC50 (GR [2]; Table 8, ncADCs): 47600 pM
- S/N (GR [2]; [6]): 17.5
- Released Payload Precursor Concentration [5]: 0 nM
- Released Payload Concentration [5]: 10.1 nM

From patent publication US20230119539A1, “TRACELESS LINKERS AND PROTEIN-CONJUGATES THEREOF” (Regeneron Pharmaceuticals, Inc., priority 2019, published 2023)
